Results reported in patent US4684664A, “Derivatives of β-(4-isocyano-1,2,3,4-diepoxycyclopentyl) acrylic acid” (Kureha Kagaku Kogyo Kabushiki Kaisha, priority 1984, dated 1987).
Values after ≈ are worked out from the molar mass of the structure shown.

Tests used:
Format in all cases: cell-based
[1] = tested on: Escherichia coli K12 C600 IAM 1264; experiment: Antibacterial activity, agar-dilution MIC, organism No. 6; conditions: Escherichia coli, IAM1264; Organism No. 6, bouillon-agar; read-out: Minimum Inhibitory Concentration
Method in brief: (§1)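 MICs were determined by agar dilution on bouillon-agar medium. The value is the minimum concentration of specimen inhibiting growth, expressed as μg/ml of culture medium.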

[2] = tested on: Salmonella paratyphi-A 1015; experiment: Antibacterial activity, agar-dilution MIC, organism No. 10; conditions: Salmonella enterica, PARATYPHI, read-out: Minimum Inhibitory Concentration
Method in brief: as §1

[3] = tested on: Mycoplasma pneumoniae IID817; experiment: Antimycoplasmal activity, MIC by phenol red colour change, organism No. 28; conditions: Mycoplasma, IID817; Organism No. 28, PPLO broth + 1% glucose, 37° C.; read-out: Minimum Inhibitory Concentration (MIC)
Description: Mycoplasma pneumoniae IID817 was used as the test microorganism in a culture medium prepared by adding 1% of glucose to "PPLO broth (manufactured by Difco Co.) liquid culture medium" at 37° C. with phenol red as an indicator, thereby culturing the test microorganism.

[4] = tested on: Bacillus subtilis ATCC 6633; experiment: Antibacterial activity, agar-dilution MIC, organism No. 14; conditions: Bacillus subtilis, ATCC6633; Organism No. 14, bouillon-agar; read-out: Minimum Inhibitory Concentration
Method in brief: as §1

[5] = tested on: Escherichia coli NIHJ-JC-2; experiment: Antibacterial activity, agar-dilution MIC, organism No. 5; conditions: Escherichia coli, NIHJJC2; Organism No. 5, bouillon-agar; read-out: Minimum Inhibitory Concentration
Method in brief: as §1

[6] = tested on: Salmonella enteritidis G 14; experiment: Antibacterial activity, agar-dilution MIC, organism No. 12; conditions: Salmonella enterica, ENTERITIDIS; Organism No. 12, bouillon-agar; read-out: Minimum Inhibitory Concentration
Method in brief: as §1

[7] = tested on: Pseudomonas aeruginosa NCTC 10490; experiment: Antibacterial activity, agar-dilution MIC, organism No. 16; conditions: Pseudomonas aeruginosa, NCTC10490; Organism No. 16, bouillon-agar; read-out: Minimum Inhibitory Concentration
Method in brief: as §1

[8] = tested on: Staphylococcus aureus MS 353; experiment: Antibacterial activity, agar-dilution MIC, organism No. 3; conditions: Staphylococcus aureus, MS353; Organism No. 3, bouillon-agar; read-out: Minimum Inhibitory Concentration
Method in brief: as §1

[9] = tested on: Pseudomonas aeruginosa IFO 3445; experiment: Antibacterial activity, agar-dilution MIC, organism No. 15; conditions: Pseudomonas aeruginosa, IFO3445; Organism No. 15, bouillon-agar; read-out: Minimum Inhibitory Concentration
Method in brief: as §1

[10] = tested on: Proteus mirabilis IFO 3849; experiment: Antibacterial activity, agar-dilution MIC, organism No. 19; conditions: Proteus mirabilis, IFO3849; Organism No. 19, bouillon-agar; read-out: Minimum Inhibitory Concentration
Method in brief: as §1

[11] = tested on: Proteus rettgeri IFO 3850; experiment: Antibacterial activity, agar-dilution MIC, organism No. 22; conditions: Providencia rettgeri, IFO3850; Organism No. 22, bouillon-agar; read-out: Minimum Inhibitory Concentration
Method in brief: as §1

[12] = tested on: Salmonella typhimurium IID 971; experiment: Antibacterial activity, agar-dilution MIC, organism No. 8; conditions: Salmonella enterica; Organism No. 8, bouillon-agar; read-out: Minimum Inhibitory Concentration
Method in brief: as §1

[13] = tested on: Micrococcus luteus ATCC 9341; experiment: Antibacterial activity, agar-dilution MIC, organism No. 25; conditions: Micrococcus luteus, ATCC9341; Organism No. 25, bouillon-agar; read-out: Minimum Inhibitory Concentration
Method in brief: as §1

Proteus vulgaris OX-19 = experiment: Antibacterial activity, agar-dilution MIC, organism No. 20; conditions: Proteus vulgaris, OX19; Organism No. 20, bouillon-agar; read-out: Minimum Inhibitory Concentration
Method in brief: as §1

[14] = tested on: Proteus morganii IFO 3848; experiment: Antibacterial activity, agar-dilution MIC, organism No. 18; conditions: Morganella morganii, IFO3848; Organism No. 18, bouillon-agar; read-out: Minimum Inhibitory Concentration
Method in brief: as §1

[15] = tested on: Salmonella shottmuelleri 8006; experiment: Antibacterial activity, agar-dilution MIC, organism No. 11; conditions: Salmonella, 8006; Organism No. 11, bouillon-agar; read-out: Minimum Inhibitory Concentration
Method in brief: as §1

[16] = tested on: Klebsiella pneumoniae PCI-602; experiment: Antibacterial activity, agar-dilution MIC, organism No. 7; conditions: Klebsiella pneumoniae, PCI602; Organism No. 7, bouillon-agar; read-out: Minimum Inhibitory Concentration
Method in brief: as §1

Salmonella typhi 901 = experiment: Antibacterial activity, agar-dilution MIC, organism No. 9; conditions: Salmonella enterica, TYPHI, read-out: Minimum Inhibitory Concentration
Method in brief: as §1

Proteus vulgaris HX-19 = experiment: Antibacterial activity, agar-dilution MIC, organism No. 21; conditions: Proteus vulgaris, HX19; Organism No. 21, bouillon-agar; read-out: Minimum Inhibitory Concentration
Method in brief: as §1

[17] = tested on: Pseudomonas aeruginosa PAO 1; experiment: Antibacterial activity, agar-dilution MIC, organism No. 17; conditions: Pseudomonas aeruginosa, PAO1; Organism No. 17, bouillon-agar; read-out: Minimum Inhibitory Concentration
Method in brief: as §1

[18] = tested on: Enterobacter aerogenes ATCC 13048; experiment: Antibacterial activity, agar-dilution MIC, organism No. 23; conditions: Klebsiella aerogenes, ATCC13048; Organism No. 23, bouillon-agar; read-out: Minimum Inhibitory Concentration
Method in brief: as §1

[19] = tested on: Streptococcus faecium IFO 3826; experiment: Antibacterial activity, agar-dilution MIC, organism No. 27; conditions: Enterococcus faecium, IFO3826; Organism No. 27, bouillon-agar; read-out: Minimum Inhibitory Concentration
Method in brief: as §1

Enterobacter cloacae 963 = experiment: Antibacterial activity, agar-dilution MIC, organism No. 24; conditions: Enterobacter cloacae, 963; Organism No. 24, bouillon-agar; read-out: Minimum Inhibitory Concentration
Method in brief: as §1

[20] = tested on: Aspergillus niger IFO 6342; experiment: Antifungal activity, agar-dilution MIC, organism No. 30; conditions: Aspergillus niger, IFO6342; Organism No. 30, bouillon-agar; read-out: Minimum Inhibitory Concentration
Method in brief: as §1

[21] = tested on: Streptococcus pyogenes IFO 3340; experiment: Antibacterial activity, agar-dilution MIC, organism No. 26; conditions: Streptococcus pyogenes, IFO3340; Organism No. 26, bouillon-agar; read-out: Minimum Inhibitory Concentration
Method in brief: as §1

[22] = tested on: Candida albicans IAM 4905; experiment: Antifungal activity, agar-dilution MIC, organism No. 29; conditions: Candida albicans, IAM4905; Organism No. 29, bouillon-agar; read-out: Minimum Inhibitory Concentration
Method in brief: as §1

[23] = tested on: Streptococcus pyogenes Cook; experiment: Antibacterial activity, agar-dilution MIC, organism No. 4; conditions: Streptococcus pyogenes; Organism No. 4, bouillon-agar; read-out: Minimum Inhibitory Concentration
Method in brief: as §1

[24] = tested on: Serratia marcescens IAM 1184; experiment: Antibacterial activity, agar-dilution MIC, organism No. 13; conditions: Serratia marcescens, IAM1184; Organism No. 13, bouillon-agar; read-out: Minimum Inhibitory Concentration
Method in brief: as §1

[25] = tested on: Staphylococcus aureus Terajima; experiment: Antibacterial activity, agar-dilution MIC, organism No. 2; conditions: Staphylococcus aureus; Organism No. 2, bouillon-agar; read-out: Minimum Inhibitory Concentration
Method in brief: as §1

[26] = tested on: Staphylococcus aureus FDA 209PJc-1; experiment: Antibacterial activity, agar-dilution MIC, organism No. 1; conditions: Staphylococcus aureus, FDA209PJC1; Organism No. 1, bouillon-agar; read-out: Minimum Inhibitory Concentration
Method in brief: as §1

SMILES	MIC [1] [µg/mL]	MIC [2] [µg/mL]	MIC [3] [µg/mL]	MIC [4] [µg/mL]	MIC [5] [µg/mL]	MIC [6] [µg/mL]	MIC [7] [µg/mL]	MIC [8] [µg/mL]	MIC [9] [µg/mL]	MIC [10] [µg/mL]	MIC [11] [µg/mL]	MIC [12] [µg/mL]	MIC [13] [µg/mL]	MIC (Proteus vulgaris OX-19) [µg/mL]	MIC [14] [µg/mL]	MIC [15] [µg/mL]	MIC [16] [µg/mL]	MIC (Salmonella typhi 901) [µg/mL]	MIC (Proteus vulgaris HX-19) [µg/mL]	MIC [17] [µg/mL]	other results
[C-]#[N+]C12CC3(/C=C/C(=O)OCC(=O)c4ccc(Cl)cc4)OC3C1O2 (stereo not shown) [compound 5]	< 0.05	< 0.05	< 0.05	12.5 (≈ 36.2 µM)	6.25 (≈ 18.1 µM)	3.13 (≈ 9.05 µM)	> 100	0.78 (≈ 2.26 µM)	> 100	100 (≈ 289 µM)	100 (≈ 289 µM)	6.25 (≈ 18.1 µM)	< 0.05	0.39 (≈ 1.13 µM)	100 (≈ 289 µM)	< 0.05	6.25 (≈ 18.1 µM)	3.13 (≈ 9.05 µM)	0.39 (≈ 1.13 µM)	> 100	MIC [18]: 100 µg/mL (≈ 289 µM); MIC [19]: 12.5 µg/mL (≈ 36.2 µM); MIC (Enterobacter cloacae 963): 0.1 µg/mL (≈ 0.289 µM); MIC [20]: 6.25 µg/mL (≈ 18.1 µM); MIC [21]: 1.56 µg/mL (≈ 4.51 µM); MIC [22]: 1.56 µg/mL (≈ 4.51 µM); MIC [23]: 12.5 µg/mL (≈ 36.2 µM); MIC [24]: > 100 µg/mL; MIC [25]: 0.78 µg/mL (≈ 2.26 µM); MIC [26]: 0.05 µg/mL (≈ 0.145 µM)
[C-]#[N+]C12CC3(/C=C/C(=O)OCc4cccc([N+](=O)[O-])c4)OC3C1O2 (stereo not shown) [compound 14]	> 200	200 (≈ 609 µM)	3.13	200 (≈ 609 µM)	> 200	> 200	> 200	200 (≈ 609 µM)	> 200	> 200	> 200	> 200	0.78 (≈ 2.38 µM)	200 (≈ 609 µM)	200 (≈ 609 µM)	200 (≈ 609 µM)	200 (≈ 609 µM)	200 (≈ 609 µM)	12.5 (≈ 38.1 µM)	> 200	MIC [18]: > 200 µg/mL; MIC [19]: 200 µg/mL (≈ 609 µM); MIC (Enterobacter cloacae 963): > 200 µg/mL; MIC [20]: 25 µg/mL (≈ 76.2 µM); MIC [21]: > 200 µg/mL; MIC [22]: 12.5 µg/mL (≈ 38.1 µM); MIC [23]: > 200 µg/mL; MIC [24]: > 200 µg/mL; MIC [25]: 200 µg/mL (≈ 609 µM); MIC [26]: 200 µg/mL (≈ 609 µM)
[C-]#[N+]C12CC3(/C=C/C(=O)Nc4ccc(C(F)(F)F)cc4)OC3C1O2 (stereo not shown) [compound 46]	> 200	0.78 (≈ 2.32 µM)	< 0.2	6.25 (≈ 18.6 µM)	> 200	25 (≈ 74.3 µM)	> 200	< 0.05	> 200	> 200	200 (≈ 595 µM)	50 (≈ 149 µM)	< 0.05	0.39 (≈ 1.16 µM)	1.56 (≈ 4.64 µM)	0.78 (≈ 2.32 µM)	0.39 (≈ 1.16 µM)	50 (≈ 149 µM)	0.39 (≈ 1.16 µM)	> 200	MIC [18]: > 200 µg/mL; MIC [19]: > 200 µg/mL; MIC (Enterobacter cloacae 963): > 200 µg/mL; MIC [20]: 3.13 µg/mL (≈ 9.31 µM); MIC [21]: 3.13 µg/mL (≈ 9.31 µM); MIC [22]: 1.56 µg/mL (≈ 4.64 µM); MIC [24]: 200 µg/mL (≈ 595 µM); MIC [25]: 0.39 µg/mL (≈ 1.16 µM); MIC [26]: 0.1 µg/mL (≈ 0.297 µM)
[C-]#[N+]C12CC3(/C=C/C(=O)Nc4cccc([N+](=O)[O-])c4)OC3C1O2 (stereo not shown) [compound 48]	25 (≈ 79.8 µM)	0.39 (≈ 1.24 µM)	< 0.2	6.25 (≈ 20 µM)	25 (≈ 79.8 µM)	3.13 (≈ 9.99 µM)	> 200	0.1 (≈ 0.319 µM)	> 200	12.5 (≈ 39.9 µM)	1.56 (≈ 4.98 µM)	3.13 (≈ 9.99 µM)	< 0.05	< 0.05	0.2 (≈ 0.638 µM)	0.39 (≈ 1.24 µM)	0.2 (≈ 0.638 µM)	3.13 (≈ 9.99 µM)	< 0.05	> 200	MIC [18]: > 200 µg/mL; MIC [19]: 6.25 µg/mL (≈ 20 µM); MIC (Enterobacter cloacae 963): 25 µg/mL (≈ 79.8 µM); MIC [20]: 3.13 µg/mL (≈ 9.99 µM); MIC [21]: 0.39 µg/mL (≈ 1.24 µM); MIC [22]: 3.13 µg/mL (≈ 9.99 µM); MIC [24]: 6.25 µg/mL (≈ 20 µM); MIC [25]: 0.39 µg/mL (≈ 1.24 µM); MIC [26]: 0.2 µg/mL (≈ 0.638 µM)
